# Biological target: T1, α4β1 integrin (Homo sapiens, UniProt P05556+P13612)
# T1 construct: endogenous in cells; host or cells: Ramos cells
# Test: Adhesion of calcein-labeled Ramos cells to CS1 (fibronectin) peptide conjugated ovalbumin
# Type: cell-based
# Settings: Ramos cell adhesion to CS1 conjugated ovalbumin
# In short: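 Calcein AM-labelled Ramos cells (2.5×10^5/well) with compound, up to 100 μM, added to plates coated with CS1 peptide–ovalbumin (0.5 μg/ml) and blocked with 3% BSA. Binding buffer TBS pH 7.5 with 1 mM each MgCl2, CaCl2, MnCl2; 30 min, 37 °C. After washes, adherent cells lysed and read fluorometrically; […].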
# [1] = Table 5, dose required to give 50% inhibition
# [2] = Table 7, dose required to give 50% inhibition
# T1 sequence (P13612 34-1032): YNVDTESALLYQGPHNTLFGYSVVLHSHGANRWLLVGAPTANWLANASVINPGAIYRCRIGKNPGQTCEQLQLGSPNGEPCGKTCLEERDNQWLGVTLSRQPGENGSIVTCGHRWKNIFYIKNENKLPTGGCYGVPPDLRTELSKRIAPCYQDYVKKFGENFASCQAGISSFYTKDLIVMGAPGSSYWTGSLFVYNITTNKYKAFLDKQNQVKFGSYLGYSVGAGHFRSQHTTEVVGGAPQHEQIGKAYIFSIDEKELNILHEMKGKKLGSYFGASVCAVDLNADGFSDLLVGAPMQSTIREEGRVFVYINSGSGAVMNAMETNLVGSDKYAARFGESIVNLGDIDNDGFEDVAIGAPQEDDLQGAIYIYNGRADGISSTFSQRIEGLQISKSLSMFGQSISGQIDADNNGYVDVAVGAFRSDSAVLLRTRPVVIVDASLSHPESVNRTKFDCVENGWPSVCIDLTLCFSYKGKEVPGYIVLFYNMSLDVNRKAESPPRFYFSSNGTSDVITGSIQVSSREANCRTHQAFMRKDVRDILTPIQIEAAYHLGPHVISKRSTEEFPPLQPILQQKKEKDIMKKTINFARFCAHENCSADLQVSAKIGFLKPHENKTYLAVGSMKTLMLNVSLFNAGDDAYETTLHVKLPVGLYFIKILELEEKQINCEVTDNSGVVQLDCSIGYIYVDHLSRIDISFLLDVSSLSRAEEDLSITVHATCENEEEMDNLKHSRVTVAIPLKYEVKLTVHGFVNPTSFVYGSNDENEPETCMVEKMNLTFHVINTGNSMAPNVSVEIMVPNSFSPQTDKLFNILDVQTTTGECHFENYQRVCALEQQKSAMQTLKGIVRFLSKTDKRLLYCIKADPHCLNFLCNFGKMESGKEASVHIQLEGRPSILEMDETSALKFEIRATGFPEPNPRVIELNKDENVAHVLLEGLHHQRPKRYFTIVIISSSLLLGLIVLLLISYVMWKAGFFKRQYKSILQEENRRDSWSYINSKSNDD
# T1 sequence (P05556 21-798): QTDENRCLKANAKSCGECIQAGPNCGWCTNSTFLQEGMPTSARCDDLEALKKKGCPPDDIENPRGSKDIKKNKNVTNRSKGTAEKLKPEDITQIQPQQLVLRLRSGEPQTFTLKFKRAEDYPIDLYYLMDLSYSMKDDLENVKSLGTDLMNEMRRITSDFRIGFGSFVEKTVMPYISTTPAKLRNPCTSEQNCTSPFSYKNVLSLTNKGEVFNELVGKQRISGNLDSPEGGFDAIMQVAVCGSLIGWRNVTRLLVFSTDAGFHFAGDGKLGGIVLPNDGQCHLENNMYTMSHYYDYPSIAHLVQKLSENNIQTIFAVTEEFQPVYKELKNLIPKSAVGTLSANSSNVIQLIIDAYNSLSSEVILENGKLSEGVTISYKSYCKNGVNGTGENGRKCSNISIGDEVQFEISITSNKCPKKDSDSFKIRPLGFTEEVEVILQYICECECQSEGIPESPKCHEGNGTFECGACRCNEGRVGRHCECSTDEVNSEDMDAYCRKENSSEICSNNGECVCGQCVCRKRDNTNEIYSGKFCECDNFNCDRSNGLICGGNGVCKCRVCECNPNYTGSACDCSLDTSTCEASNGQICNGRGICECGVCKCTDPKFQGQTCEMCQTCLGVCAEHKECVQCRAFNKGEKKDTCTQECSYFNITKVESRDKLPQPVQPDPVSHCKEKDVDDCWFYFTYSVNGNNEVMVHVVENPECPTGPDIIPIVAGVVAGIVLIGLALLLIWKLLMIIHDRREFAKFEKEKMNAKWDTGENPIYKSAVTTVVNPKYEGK
structure (smiles),measurement,setting,value
"Cc1ccc([C@H](CC(=O)O)NC(=O)Nc2c(NC(=O)C(C)(C)C)ccn(Cc3ccccc3Cl)c2=O)cc1 [(3S)-3-{[({1-(2-chlorobenzyl)-4-[(2,2-dimethylpropanoyl)amino]-2-oxo-1,2-dihydropyridin-3-yl}amino)carbonyl]amino}-3-(4-methylphenyl)propanoic acid]",IC50,[1],0.01 µM
Cc1ccc([C@H](CC(=O)O)NC(=O)Nc2cccn(Cc3ccc(Cl)cc3Cl)c2=O)cc1,IC50,"Table 4, 30 minutes at 37° C.",0.4 µM
COc1ccccc1-c1cccc([C@H](CC(=O)O)NC(=O)Nc2c(O)c(C)cn(Cc3ccccc3Cl)c2=O)c1,IC50,[2],0.015 µM
Cc1ccc([C@H](CC(=O)O)NC(=O)Nc2c(Br)ccn(Cc3ccccc3Cl)c2=O)cc1,IC50,"Table 3, 30 minutes at 37° C.",0.02 µM
"Cc1ccc([C@H](CC(=O)O)NC(=O)Nc2c(O)ccn(Cc3ccccc3F)c2=O)cc1 [(3S)-3-{[({1-[(2-fluorophenyl)methyl]-4-hydroxy-2-oxo-1,2-dihydro-3-pyridinyl}amino)carbonyl]amino}-3-(4-methylphenyl)propanoic acid]",IC50,"Table 3, 30 minutes at 37° C.",0.03 µM
Cc1cccc(-c2ccc([C@H](CC(=O)O)NC(=O)Nc3c(O)ccn(Cc4ccccc4Cl)c3=O)cc2)c1,IC50,[2],0.03 µM
"Cc1ccc([C@H](CC(=O)O)NC(=O)Nc2c(N)ccn(Cc3ccccc3Cl)c2=O)cc1 [(3S)-3-{[({4-amino-1-[(2-chlorophenyl)methyl]-2-oxo-1,2-dihydro-3-pyridinyl}amino)carbonyl]amino}-3-(4-methylphenyl)propanoic acid]",IC50,"Table 3, 30 minutes at 37° C.",0.01 µM
"Cc1ccc([C@H](CC(=O)O)NC(=O)Nc2c(CC(C)C)nc(C)n(Cc3ccccc3)c2=O)cc1 [(3S)-3-[({[2-methyl-4-(2-methylpropyl)-6-oxo-1-(phenylmethyl)-1,6-dihydro-5-pyrimidinyl]amino}carbonyl)amino]-3-(4-methylphenyl)propanoic acid]",IC50,"Table 3, 30 minutes at 37° C.",0.01 µM
"CCOc1cccc(Cl)c1Cn1c2c(c(O)c(NC(=O)N[C@@H](CC(=O)O)c3cccc(OCC4CC4)c3)c1=O)CCC2 [(3S)-3-[({[1-(2-chloro-6-ethoxybenzyl)-4-hydroxy-2-oxo-2,5,6,7-tetrahydro-1H-cyclopenta[b]pyridin-3-yl]amino}carbonyl)amino]-3-[3-(cyclopropylmethoxy)phenyl]propanoic acid]",IC50,[2],0.004 µM
COCCOCCOCCOc1ccn(Cc2ccccc2Cl)c(=O)c1NC(=O)N[C@@H](CC(=O)O)c1ccc(C)cc1,IC50,"Table 3, 30 minutes at 37° C.",0.002 µM
O=C(O)C[C@H](NC(=O)Nc1c(O)c2c(n(Cc3ccccc3Cl)c1=O)CCC2)c1cccc(OC(F)(F)F)c1,IC50,[2],0.01 µM
O=C(O)C[C@H](NC(=O)Nc1c(O)c2c(n(Cc3ccccc3Cl)c1=O)CCC2)c1cccc(OC(F)(F)C(F)F)c1,IC50,[2],0.004 µM
"Cc1ccc([C@H](CC(=O)O)NC(=O)Nc2c(O)ccn(Cc3ccccc3Cl)c2=O)cc1C [(3S)-3-[({[1-(2-chlorobenzyl)-4-hydroxy-2-oxo-1,2-dihydropyridin-3-yl]amino}carbonyl)amino]-3-(3,4-dimethylphenyl)propanoic acid]",IC50,[1],0.005 µM
"COc1cccc([C@H](CC(=O)O)NC(=O)Nc2c(O)ccn(Cc3ccccc3Cl)c2=O)c1 [(3S)-3-{[({1-[(2-chlorophenyl)methyl]-4-hydroxy-2-oxo-1,2-dihydro-3-pyridinyl}amino)carbonyl]amino}-3-[3-(methyloxy)phenyl]propanoic acid]",IC50,"Table 3, 30 minutes at 37° C.",0.005 µM
Cc1cn(Cc2c(C)cccc2Cl)c(=O)c(NC(=O)N[C@@H](CC(=O)O)c2ccc3c(c2)CCO3)c1O,IC50,[2],0.005 µM
Cc1ccc([C@H](CC(=O)O)NC(=O)Nc2c(O)ccn(Cc3cc(C(F)(F)F)cc(C(F)(F)F)c3)c2=O)cc1,IC50,[1],0.3 µM
Cc1ccc([C@H](CC(=O)O)NC(=O)Nc2c(O)c3c(n(Cc4ccc(Cl)cc4)c2=O)CCC3)cc1,IC50,"Table 6, 30 minutes at 37° C.",0.05 µM
"Cc1ccc([C@H](CC(=O)O)NC(=O)Nc2cc(C)cn(Cc3ccccc3Cl)c2=O)cc1 [(3S)-3-{[({1-[(2-chlorophenyl)methyl]-5-methyl-2-oxo-1,2-dihydro-3-pyridinyl}amino)carbonyl]amino}-3-(4-methylphenyl)propanoic acid]",IC50,"Table 3, 30 minutes at 37° C.",0.07 µM
"CCOc1ccc([C@H](CC(=O)O)NC(=O)Nc2c(O)c(C)cn(Cc3ccccc3Cl)c2=O)cc1OCC [(3S)-3-[({[1-(2-chlorobenzyl)-4-hydroxy-5-methyl-2-oxo-1,2-dihydropyridin-3-yl]amino}carbonyl)amino]-3-(3,4-diethoxyphenyl)propanoic acid]",IC50,[1],0.0006 µM
CCCCc1cn(Cc2ccccc2Cl)c(=O)c(NC(=O)N[C@@H](CC(=O)O)c2ccc(C)cc2)c1O,IC50,[1],0.025 µM
CCOc1cccc([C@H](CC(=O)O)NC(=O)Nc2c(O)c(C)cn(Cc3c(Cl)cccc3OC)c2=O)c1,IC50,"Table 6, 30 minutes at 37° C.",0.003 µM
Cc1ccc([C@H](CC(=O)O)NC(=O)Nc2cccn(Cc3cc(C)ccc3C)c2=O)cc1,IC50,"Table 4, 30 minutes at 37° C.",0.15 µM
Cc1ccc([C@H](CC(=O)O)NC(=O)Nc2c(O)ccn(Cc3ccccc3)c2=O)cc1,IC50,"Table 4, 30 minutes at 37° C.",0.03 µM
"CCCOc1ccc([C@H](CC(=O)O)NC(=O)Nc2c(O)ccn(Cc3ccccc3Cl)c2=O)cc1OCCC [(3S)-3-[({[1-(2-chlorobenzyl)-4-hydroxy-2-oxo-1,2-dihydropyridin-3-yl]amino}carbonyl)amino]-3-(3,4-dipropoxyphenyl)propanoic acid]",IC50,[1],0.003 µM
CCOc1cccc([C@H](CC(=O)O)NC(=O)Nc2c(O)c(CC)c(C)n(Cc3c(Cl)cccc3OCC)c2=O)c1,IC50,[2],0.004 µM
"CCOc1cccc(Cl)c1Cn1cc(C)c(O)c(NC(=O)N[C@@H](CC(=O)O)c2cccc(OC(F)(F)F)c2)c1=O [(3S)-3-[({[1-(2-chloro-6-ethoxybenzyl)-4-hydroxy-5-methyl-2-oxo-1,2-dihydropyridin-3-yl]amino}carbonyl)amino]-3-[3-(trifluoromethoxy)phenyl]propanoic acid]",IC50,[2],0.004 µM
Cc1ccc([C@H](CC(=O)O)NC(=O)Nc2c(O)c(C)cn(Cc3ccc(Cl)cc3)c2=O)cc1,IC50,[1],0.02 µM
COc1cc([C@H](CC(=O)O)NC(=O)Nc2c(O)ccn(Cc3ccccc3Cl)c2=O)cc(OC)c1OC,IC50,"Table 3, 30 minutes at 37° C.",0.02 µM
O=C(O)CC(NC(=O)Nc1c(O)ccn(Cc2ccccc2Cl)c1=O)c1cccnc1 (stereo not shown),IC50,[1],0.05 µM
CCOc1cccc([C@H](CC(=O)O)NC(=O)Nc2c(O)c(C)cn(Cc3c(Cl)cccc3OCC(F)(F)F)c2=O)c1,IC50,[2],0.004 µM
Cc1ccc([C@H](CC(=O)O)NC(=O)Nc2cc(Cl)cc(Cc3ccccc3)c2O)cc1 [(3S)-3-[({[5-chloro-2-hydroxy-3-(phenylmethyl)phenyl]amino}carbonyl)amino]-3-(4-methylphenyl)propanoic acid],IC50,"Table 4, 30 minutes at 37° C.",8 µM
Cc1cccc(Cl)c1Cn1c2c(c(O)c(NC(=O)N[C@@H](CC(=O)O)c3cccc(OCC4CC4)c3)c1=O)CCC2,IC50,[2],0.01 µM
CCOc1ccc(Cl)c(Cl)c1Cn1c2c(c(O)c(NC(=O)N[C@@H](CC(=O)O)c3cccc(OC(C)C)c3)c1=O)CCC2,IC50,[2],0.005 µM
Cc1ccc([C@H](CC(=O)O)NC(=O)Nc2c(C)ccn(Cc3ccccc3F)c2=O)cc1,IC50,"Table 3, 30 minutes at 37° C.",0.02 µM
"Cn1ccc2cc([C@H](CC(=O)O)NC(=O)Nc3c(O)c4c(n(Cc5ccccc5Cl)c3=O)CCC4)ccc21 [(3S)-3-[({[1-(2-chlorobenzyl)-4-hydroxy-2-oxo-2,5,6,7-tetrahydro-1H-cyclopenta[b]pyridin-3-yl]amino}carbonyl)amino]-3-(1-methyl-1H-indol-5-yl)propanoic acid]",IC50,[2],0.004 µM
"Cc1ccc([C@H](CC(=O)O)NC(=O)Nc2c(O)c(C)cn(Cc3c(Cl)cccc3N3CCCCC3)c2=O)cc1 [(3S)-3-({[(1-{[2-chloro-6-tetrahydro-1(2H)-pyridinylphenyl]methyl}-4-hydroxy-5-methyl-2-oxo-1,2-dihydro-3-pyridinyl)amino]carbonyl}amino)-3-(4-methylphenyl)propanoic acid]",IC50,[2],0.09 µM
CCOc1cccc(Cl)c1Cn1c2c(c(O)c(NC(=O)N[C@@H](CC(=O)O)c3cccc(OC4CCCC4)c3)c1=O)CCC2,IC50,[2],0.006 µM
Cc1ccc([C@H](CC(=O)O)NC(=O)Nc2cccn(Cc3c(Cl)cccc3[N+](=O)[O-])c2=O)cc1,IC50,"Table 4, 30 minutes at 37° C.",4 µM
"COc1ccc([C@H](CC(=O)O)NC(=O)Nc2c(O)ccn(Cc3ccccc3Cl)c2=O)cc1 [(3S)-3-{[({1-[(2-chlorophenyl)methyl]-4-hydroxy-2-oxo-1,2-dihydro-3-pyridinyl}amino)carbonyl]amino}-3-[4-(methyloxy)phenyl]propanoic acid]",IC50,"Table 3, 30 minutes at 37° C.",0.005 µM
"CCOc1cccc(Cl)c1Cn1cc(C)c(O)c(NC(=O)N[C@@H](CC(=O)O)c2ccc(C)cc2)c1=O [(3S)-3-[({[1-(2-chloro-6-ethoxybenzyl)-4-hydroxy-5-methyl-2-oxo-1,2-dihydropyridin-3-yl]amino}carbonyl)amino]-3-(4-methylphenyl)propanoic acid]",IC50,"Table 6, 30 minutes at 37° C.",0.003 µM
COc1ccn(Cc2ccccc2Cl)c(=O)c1NC(=O)N[C@@H](CC(=O)O)c1ccc(C)cc1,IC50,"Table 3, 30 minutes at 37° C.",0.02 µM
Cc1ccc([C@H](CC(=O)O)NC(=O)Nc2c(O)ccn(Cc3ccccc3S(C)(=O)=O)c2=O)cc1,IC50,[1],0.035 µM
O=C(O)C[C@@H](CCc1ccccc1)NC(=O)Nc1c(O)ccn(Cc2ccccc2Cl)c1=O,IC50,"Table 6, 30 minutes at 37° C.",0.115 µM
"O=C(O)C[C@H](NC(=O)Nc1c(O)ccn(Cc2ccccc2Cl)c1=O)c1ccc2c(c1)OCCO2 [(3S)-3-[({[1-(2-chlorobenzyl)-4-hydroxy-2-oxo-1,2-dihydropyridin-3-yl]amino}carbonyl)amino]-3-(2,3-dihydro-1,4-benzodioxin-6-yl)propanoic acid]",IC50,[1],0.01 µM
COc1ccc([C@H](CC(=O)O)NC(=O)Nc2cccn(Cc3ccccc3Cl)c2=O)cc1,IC50,"Table 4, 30 minutes at 37° C.",0.1 µM
Cc1cn(Cc2c(C)cccc2Cl)c(=O)c(NC(=O)NC(CC(=O)O)c2ccc(S(C)(=O)=O)cc2)c1O (stereo not shown),IC50,[2],0.043 µM
O=C(O)C[C@H](NC(=O)Nc1cccn(Cc2ccccc2Cl)c1=O)c1ccccc1,IC50,"Table 4, 30 minutes at 37° C.",0.1 µM
O=C(O)C[C@H](NC(=O)Nc1cccn(Cc2cccs2)c1=O)c1ccc(F)cc1,IC50,"Table 4, 30 minutes at 37° C.",1.6 µM
Cc1cc(C)cc(-c2cccc([C@H](CC(=O)O)NC(=O)Nc3c(O)c(C)cn(Cc4ccccc4Cl)c3=O)c2)c1,IC50,[2],0.05 µM

# From patent publication US6972296B2, “Carboxylic acid derivatives that inhibit the binding of integrins to their receptors” (Encysive Pharmaceuticals Inc., priority 1999, dated 2005)
